Laboratory results: PubChem BioAssay AID1963853 (Molecular Pharmacology Branch, DTP, NCI, 2024)

System: 266295-075-R-J1-PDC spheroid viability
Experiment: Anticancer human tumor 266295-075-R-J1-PDC patient-derived head and neck squamous carcinoma cell line growth inhibition [POLQ]
Conditions: spheroids with HUVEC and MSC; for IC50: curve of first compound; for viability, T/C: stronger effect = lower value
Procedure, shortened: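 PDC + HUVEC + MSC complex spheroids; POLQ inhibitors ± partner drugs; top conc. at/near clinical Cmax, else 10 microM (SN-38 1 microM), half-log dilutions; 37 degrees C, 5% CO2.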

[1] = second compound 0.0316 µM, first compound 0.0316 µM
[2] = second compound 0.0316 µM, first compound 0.1 µM
[3] = second compound 0.0316 µM, first compound 0.316 µM
[4] = second compound 0.0316 µM, first compound 1 µM
[5] = second compound 0.0316 µM, first compound 3.16 µM
[6] = second compound 0.0316 µM, first compound 10 µM
[7] = second compound 0.1 µM, first compound 0.0316 µM
[8] = second compound 0.1 µM, first compound 0.1 µM
[9] = second compound 0.1 µM, first compound 0.316 µM
[10] = second compound 0.1 µM, first compound 1 µM
[11] = second compound 0.1 µM, first compound 3.16 µM
[12] = second compound 0.1 µM, first compound 10 µM
[13] = second compound 0.316 µM, first compound 0.0316 µM
[14] = second compound 0.316 µM, first compound 0.1 µM
[15] = second compound 0.316 µM, first compound 0.316 µM
[16] = second compound 0.316 µM, first compound 1 µM
[17] = second compound 0.316 µM, first compound 3.16 µM
[18] = second compound 0.316 µM, first compound 10 µM
[19] = second compound 1 µM, first compound 0.0316 µM
[20] = second compound 1 µM, first compound 0.1 µM
[21] = second compound 1 µM, first compound 0.316 µM
[22] = second compound 1 µM, first compound 1 µM
[23] = second compound 1 µM, first compound 3.16 µM
[24] = second compound 1 µM, first compound 10 µM
[25] = second compound 3.16 µM, first compound 0.0316 µM
[26] = second compound 3.16 µM, first compound 0.1 µM
[27] = second compound 3.16 µM, first compound 0.316 µM
[28] = second compound 3.16 µM, first compound 1 µM
[29] = second compound 3.16 µM, first compound 3.16 µM
[30] = second compound 3.16 µM, first compound 10 µM
[31] = second compound 10 µM, first compound 0.0316 µM
[32] = second compound 10 µM, first compound 0.1 µM
[33] = second compound 10 µM, first compound 0.316 µM
[34] = second compound 10 µM, first compound 1 µM
[35] = second compound 10 µM, first compound 3.16 µM
[36] = second compound 10 µM, first compound 10 µM
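Also: spheroids exposed to compounds for seven days before readout.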

CC1COCCN1c1cc(C2(O)CC3CCC(C2)O3)c2cnn(-c3ccn[nH]3)c2n1 (centres undefined) + COC1C(OC(N)=O)C(O)C(Oc2ccc3c(O)c(NC(=O)c4ccc(O)c(CC=C(C)C)c4)c(=O)oc3c2C)OC1(C)C
IC50 (second compound 0.0316 µM): 1130 nM | IC50 (second compound 0.1 µM): 1290 nM | IC50 (second compound 0.316 µM): 1050 nM | IC50 (second compound 1 µM): 921 nM | IC50 (second compound 3.16 µM): 898 nM | IC50 (second compound 10 µM): 903 nM | viability, T/C [1]: 84.7% | viability, T/C [2]: 79.8% | viability, T/C [3]: 65.6% | viability, T/C [4]: 52.8% | viability, T/C [5]: 36.9% | viability, T/C [6]: 29.8% | viability, T/C [7]: 92% | viability, T/C [8]: 80.8% | viability, T/C [9]: 62.7% | viability, T/C [10]: 51.5% | viability, T/C [11]: 44.6% | viability, T/C [12]: 26.8% | viability, T/C [13]: 103% | viability, T/C [14]: 69.5% | viability, T/C [15]: 64.8% | viability, T/C [16]: 56.1% | viability, T/C [17]: 43.2% | viability, T/C [18]: 30.4% | viability, T/C [19]: 87.2% | viability, T/C [20]: 73.3% | viability, T/C [21]: 75.3% | viability, T/C [22]: 46.8% | viability, T/C [23]: 41.7% | viability, T/C [24]: 34.4% | viability, T/C [25]: 84.2% | viability, T/C [26]: 74.7% | viability, T/C [27]: 57% | viability, T/C [28]: 48.2% | viability, T/C [29]: 42.9% | viability, T/C [30]: 31% | viability, T/C [31]: 81.2% | viability, T/C [32]: 81.9% | viability, T/C [33]: 63.2% | viability, T/C [34]: 49.4% | viability, T/C [35]: 39.3% | viability, T/C [36]: 34.2%

COc1cccc2c1C(=O)c1c(O)c3c(c(O)c1C2=O)CC(O)(C(=O)CO)CC3OC1CC(N)C(O)C(C)O1 (centres undefined) + Cc1cccc(N(C)C(=O)C2C(O)CCN2c2nc(C)cc(C(F)(F)F)c2C#N)c1
IC50 (second compound 0.0316 µM): 1580 nM | IC50 (second compound 0.1 µM): 1600 nM | IC50 (second compound 0.316 µM): 1350 nM | IC50 (second compound 1 µM): 1350 nM | IC50 (second compound 3.16 µM): 1120 nM | IC50 (second compound 10 µM): 838 nM | viability, T/C [1]: 69.3% | viability, T/C [2]: 74.4% | viability, T/C [3]: 65.8% | viability, T/C [4]: 59.6% | viability, T/C [5]: 36.1% | viability, T/C [6]: 1.6% | viability, T/C [7]: 79.5% | viability, T/C [8]: 81.9% | viability, T/C [9]: 61.6% | viability, T/C [10]: 60.2% | viability, T/C [11]: 40% | viability, T/C [12]: 1.95% | viability, T/C [13]: 84.5% | viability, T/C [14]: 76% | viability, T/C [15]: 59.8% | viability, T/C [16]: 60.3% | viability, T/C [17]: 36.1% | viability, T/C [18]: 2.38% | viability, T/C [19]: 85.1% | viability, T/C [20]: 90.8% | viability, T/C [21]: 79.4% | viability, T/C [22]: 55.7% | viability, T/C [23]: 28.3% | viability, T/C [24]: 1.59% | viability, T/C [25]: 81.1% | viability, T/C [26]: 81.1% | viability, T/C [27]: 61.6% | viability, T/C [28]: 60.3% | viability, T/C [29]: 19.1% | viability, T/C [30]: 1.26% | viability, T/C [31]: 90.9% | viability, T/C [32]: 84.6% | viability, T/C [33]: 67.7% | viability, T/C [34]: 52.3% | viability, T/C [35]: 9.35% | viability, T/C [36]: 1.42%
